# Experimental data from article doi:10.1101/2025.11.20.689572v1 (biorxiv, 2025).
# Where two headings read alike, the source gives them in different places.
# Assays:
# [1] = molecular target: T1, H1 (Homo sapiens, UniProt P35367); experiment: competitive radioligand binding, HEK293 membranes
# T1 construct: gene HRH1; full-length receptor; HEK293 cell membranes
# Description: competitive radioligand binding, HEK293 membranes on H1
# [2] = molecular target: T2, 5-HT2B (Homo sapiens, UniProt P41595); experiment: competitive radioligand binding, HEK293 membranes
# T2 construct: gene HTR2B; full-length receptor; HEK293 cell membranes
# Description: competitive radioligand binding, HEK293 membranes on 5-HT2B
# [3] = molecular target: T3, KOR (Homo sapiens, UniProt P41145); experiment: competitive radioligand binding, HEK293 membranes
# T3 construct: gene OPRK1; full-length receptor; HEK293 cell membranes
# Description: competitive radioligand binding, HEK293 membranes on KOR
# [4] = molecular target: HTR1D (Homo sapiens, UniProt P28221); experiment: cell-based; design: species or system HEK293; TRUPATH BRET2 G-protein dissociation; antagonist mode against agonist EC80; settings: agonist mode, % of control agonist
# [5] = molecular target: T4, CHRM3 (Homo sapiens, UniProt P20309); experiment: cell-based; design: species or system HEK293; TRUPATH BRET2 G-protein dissociation; antagonist mode against agonist EC80; settings: agonist mode, % of control agonist
# [6] = molecular target: T5, CHRM2 (Homo sapiens, UniProt P08172); experiment: cell-based; design: species or system HEK293; TRUPATH BRET2 G-protein dissociation; antagonist mode against agonist EC80; settings: agonist mode, % of control agonist
# T5 sequence (P08172 1-466): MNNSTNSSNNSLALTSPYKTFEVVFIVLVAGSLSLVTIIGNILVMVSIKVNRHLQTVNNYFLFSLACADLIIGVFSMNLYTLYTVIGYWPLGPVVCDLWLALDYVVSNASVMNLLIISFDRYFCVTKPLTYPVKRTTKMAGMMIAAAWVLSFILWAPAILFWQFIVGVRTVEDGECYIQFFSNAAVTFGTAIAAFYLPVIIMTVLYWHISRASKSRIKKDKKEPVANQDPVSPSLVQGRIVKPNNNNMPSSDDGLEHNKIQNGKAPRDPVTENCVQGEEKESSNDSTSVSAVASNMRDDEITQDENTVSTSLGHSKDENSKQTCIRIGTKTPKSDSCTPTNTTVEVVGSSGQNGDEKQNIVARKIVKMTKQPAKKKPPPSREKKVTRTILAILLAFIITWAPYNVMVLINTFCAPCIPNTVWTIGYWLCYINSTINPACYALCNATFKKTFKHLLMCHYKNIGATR
# [7] = molecular target: T6, HTR1A (Homo sapiens, UniProt P08908); experiment: cell-based; design: species or system HEK293; TRUPATH BRET2 G-protein dissociation; antagonist mode against agonist EC80; settings: agonist mode, % of control agonist
# T6 sequence (P08908 1-422): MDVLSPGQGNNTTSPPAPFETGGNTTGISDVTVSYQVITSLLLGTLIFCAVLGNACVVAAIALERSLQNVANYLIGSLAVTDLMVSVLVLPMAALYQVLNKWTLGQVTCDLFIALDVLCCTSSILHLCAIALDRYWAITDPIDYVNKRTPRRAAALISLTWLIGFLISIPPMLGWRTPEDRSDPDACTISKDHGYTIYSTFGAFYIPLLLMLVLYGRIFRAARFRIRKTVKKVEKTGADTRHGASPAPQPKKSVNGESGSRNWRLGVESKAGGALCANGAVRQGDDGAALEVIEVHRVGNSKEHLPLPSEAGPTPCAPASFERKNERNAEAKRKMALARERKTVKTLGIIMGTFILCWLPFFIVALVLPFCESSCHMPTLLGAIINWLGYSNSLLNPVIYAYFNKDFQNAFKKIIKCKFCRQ
# [8] = molecular target: HRH3 (Homo sapiens, UniProt Q9Y5N1); experiment: cell-based; design: species or system HEK293; TRUPATH BRET2 G-protein dissociation; antagonist mode against agonist EC80; settings: agonist mode, % of control agonist
# [9] = molecular target: T7, 5-HT2A (Homo sapiens, UniProt P28223); experiment: competitive radioligand binding, HEK293 membranes
# T7 construct: gene HTR2A; full-length receptor; HEK293 cell membranes
# Description: competitive radioligand binding, HEK293 membranes on 5-HT2A
# [10] = molecular target: T8, H2 (Homo sapiens, UniProt P25021); experiment: competitive radioligand binding, HEK293 membranes
# T8 construct: gene HRH2; full-length receptor; HEK293 cell membranes
# Description: competitive radioligand binding, HEK293 membranes on H2
# [11] = molecular target: T4, CHRM3; experiment: cell-based; design: species or system HEK293; Fluo-4 Direct calcium mobilization on FLIPR-Tetra; settings: Assay=Calcium; agonist mode
# [12] = molecular target: T6, HTR1A; experiment: cell-based; design: species or system HEK293; TRUPATH BRET2 G-protein dissociation; antagonist mode against agonist EC80; settings: agonist mode
# [13] = HEK293, read-out: N-Desmethyl Xanomeline, Assay=Gi1
# [14] = HEK293, read-out: N-Desmethyl Xanomeline, Assay=Gi2
# [15] = HEK293, read-out: N-Desmethyl Xanomeline, Assay=Gi3
# [16] = HEK293, read-out: N-Desmethyl Xanomeline, Assay=GoA
# [17] = HEK293, read-out: N-Desmethyl Xanomeline, Assay=GoB
# [18] = HEK293, read-out: N-Desmethyl Xanomeline, Assay=Gz
# [19] = HEK293, read-out: Xanomeline, Assay=Gi1
# [20] = HEK293, read-out: Xanomeline, Assay=Gi2
# [21] = HEK293, read-out: Xanomeline, Assay=Gi3
# [22] = HEK293, read-out: Xanomeline, Assay=GoA
# [23] = HEK293, read-out: Xanomeline, Assay=GoB
# [24] = HEK293, read-out: Xanomeline, Assay=Gz
smiles,measurement,setting,value
CCCCCCOc1nsnc1C1=CCCNC1 [N-desmethylxanomeline],Ki,[1],724 nM
same,Ki,[2],15.8 nM
same,Ki,[3],1020 nM
same,Emax,[4]; [13],88.1%
same,Emax,[4]; [14],66.3%
same,Emax,[4]; [15],82.1%
same,Emax,[4]; [16],92.2%
same,Emax,[4]; [17],73.8%
same,Emax,[4]; [18],93.6%
same,Emax,"[5]; HEK293, read-out: N-Desmethyl Xanomeline, Assay=Gq",62.4%
same,Emax,[6]; [13],87.3%
same,Emax,[6]; [14],88.1%
same,Emax,[6]; [15],65.4%
same,Emax,[6]; [16],101%
same,Emax,[6]; [17],95.1%
same,Emax,[6]; [18],81.5%
same,Emax,[7]; [14],103%
same,Emax,[7]; [16],97.4%
same,Emax,[7]; [17],98.8%
same,Emax,[8]; [13],75.4%
same,Emax,[8]; [14],65.4%
same,Emax,[8]; [15],84%
same,Emax,[8]; [16],79.3%
same,Emax,[8]; [17],82.8%
same,Ki,[9],537 nM
same,Ki,[10],1020 nM
same,EC50,[11],64.1 nM
same,EC50,"[12]; N-Desmethyl Xanomeline, Assay=Gi2",4340 nM
same,EC50,"[12]; N-Desmethyl Xanomeline, Assay=GoA",1320 nM
same,EC50,"[12]; N-Desmethyl Xanomeline, Assay=GoB",2000 nM
CCCCCCOc1nsnc1C1=CCCN(C)C1 [Xanomeline],Ki,[1],100 nM
same,Ki,[2],39.8 nM
same,Ki,[3],1780 nM
same,Emax,[4]; [19],69.7%
same,Emax,[4]; [20],52.7%
same,Emax,[4]; [21],66.7%
same,Emax,[4]; [22],86.5%
same,Emax,[4]; [23],63.4%
same,Emax,[4]; [24],85.3%
same,Emax,"[5]; HEK293, read-out: Xanomeline, Assay=Gq",65.6%
same,Emax,[6]; [19],64.6%
same,Emax,[6]; [20],81.2%
same,Emax,[6]; [21],30.2%
same,Emax,[6]; [22],99.1%
same,Emax,[6]; [23],97.2%
same,Emax,[6]; [24],60.4%
same,Emax,[7]; [20],99.6%
same,Emax,[7]; [22],94.5%
same,Emax,[7]; [23],91.7%
same,Emax,[8]; [20],28.5%
same,Emax,[8]; [22],25.7%
same,Emax,[8]; [23],19%
same,Ki,[9],251 nM
same,Ki,[10],347 nM
same,EC50,[11],34 nM
same,EC50,"[12]; Xanomeline, Assay=Gi2",11700 nM
same,EC50,"[12]; Xanomeline, Assay=GoA",2340 nM
same,EC50,"[12]; Xanomeline, Assay=GoB",3690 nM
